Laboratory results published in patent US4265886A, “Spiroketalins and their applications” (Roecar Holdings (Netherlands Antilles (NV), priority 1978, dated 1981).
≈ marks a conversion by molar mass, not a printed value. Where two headings read alike, the source gives them in different places.

Key:
[1] = test system: yeast-induced hind paw oedema; test: yeast-induced acute paw oedema in rats; assay type: in vivo, rat; conditions: 500-1000 mg/kg orally or 50-100 mg/kg intraperitoneally, 24 hours before 2% yeast suspension
Method: The oral effectiveness of an anti-inflammatory agent is readily shown by administering it to animals (e.g. rats) either orally or parenterally before one of their hind paws is injected with a solution or suspension of an inflammation inducing substance such as kaolin, egg white, formaldehyde, carageenin or yeast. […] Distinct reductions in the acute oedema formation of between 10-40% were observed depending on the dose and route of administration. In order to achieve such reduction with the glucosides of diosgenin, hecogenin and tigogenin doses of 500-1000 mg/kg body mass orally or 50-100 mg/kg intraperitoneally had been administered, 24 hours before the animals were challenged with fresh 2% yeast suspension in physiological saline.

[2] = test system: rats, rabbits and chickens; conditions: cited from earlier work
[3] = rats, rabbits and chickens; cited from earlier work
[4] = test system: erysipelas-induced arthritis (aortic thrombi); test: erysipelas-induced arthritis in the rat: aortic thrombi; assay type: in vivo, rat (male Wistar); conditions: 3×10 mg/kg per day, 5× per week; for AORTIC THROMBI Present in % of rats: control 90; for AORTIC THROMBI Degree of severity: key 0=No change, 1=Very slight, 2=Slight to medium, 3=Medium to severe, 4=Severe changes, control 2,60 (± 1,35)
Method: (§1) The investigation was carried out according to Schulze et al (17 in Betr. Path., 1975, 154, 1-26 and 27-51). Erysipelas arthritis is reproducible in nearly 100% of the rats given a single subcutaneous injection of E. insidiosa. Erysipelas arthritis always afflicts several joints with the same intensity in both major and minor limb joints, besides the coagulopathy and the pathological changes produced in the cardio-vascular system. Proliferating processes occur after 3 months in all surviving animals subjected to experimental erysipelas arthritis.
(§2) In order to test the spiroketalins of this invention the following parameters of the erysepilas arthritis model were used to evaluate their activities:
Fibrin-rich thrombi develop on aorta intima between the 6th and 11th day. The largest spread extended area can be observed around the 8th day.
(§3) Male Wistar rats between 155-185 g were used for these trials. The animals, kept in single cages, received a standard rat diet (Ssniff R) and water ad libitum. Room temperature was kept at 22° C., and the relative humidity varied between 50-60%. Daily illumination lasted for 12 hours. The animals had been acclimatized for 10 days prior to the commencement of the investigation.
(§4) An erysopelothrix insidiosa serotype B-strain T28 was used to challenge the animals and a single 2 ml dose (ca 100-200 million germs) was administered subcutaneously. The examined spiroketalins were suspended in sterile physiological saline and administered at the rate of 3×10 mg/kg per day. Treatment continued from the day of challenge, either to the end of the trial or the death of an animal, at the rate of 5×per week.
The parameters for aorta thrombi have been evaluated according to the following key originally described by Schulz et al. Beitrag. Path., 154, 1-26 and 27-51, 1975.
KEY FOR CLINICAL AORTA THROMBI FINDINGS
2=Slight to medium changes
3=Medium to severe changes

[5] = test system: erysipelas-induced arthritis (corneal lesions); test: erysipelas-induced arthritis in the rat: corneal lesions (opaquacy); assay type: in vivo, rat (male Wistar); conditions: for CORNEAL LESIONS Degree of severity: 3×10 mg/kg per day, 5× per week, control 2,34; for CORNEAL LESIONS Present in % of rats, day 1: control 0; for CORNEAL LESIONS Present in % of rats, day 6 / CORNEAL LESIONS Present in % of rats, day 8 / CORNEAL LESIONS Present in % of rats, day 12 / CORNEAL LESIONS Present in % of rats, day 15 / CORNEAL LESIONS Present in % of rats, day 19 / CORNEAL LESIONS Present in % of rats, day 20: control 100
Method: as §1, §2
Inflammation opaquacy appears in the cornea around the 8th day.
as §3, §4

[6] = test system: Sprague-Dawley rats; test: single oral dose animal toxicity, 14 day observation; assay type: in vivo, rat (male Sprague-Dawley); conditions: single oral doses of 125,0; 312,5; 625,0 and 1250 mg/kg
Method: Individually housed groups of ten male Sprague-Dawley rats were treated orally with single doses of hecogenin 3-β-D-glucoside or diosgenin 3β-D-glucoside. The poorly water soluble test substances were made up in an aqueous Tylose^R dispersion for homogeneity.
A suitable concentration which allowed the administration of the relevant dose at the rate of 1,0 ml/100 g body weight was prepared immediately before use. Doses ranging from 125 mg/kg to 1250 mg/kg of the agents were tested. The observation period was 14 days after which the animals were sacrificed and a macroscopic examination of some tissues was carried out. Food and water was offered ad libitum.

[7] = test system: Sprague-Dawley rats; test: 100 day feeding study, 0,1% in standard laboratory chow; assay type: in vivo, rat (male Sprague-Dawley); conditions: for mortality: 100 day observation period
From the text: (b) Standard laboratory chow was thoroughly mixed with 0,1% diosgenyl glucoside or hecogenyl glucoside and the mixtures were fed to groups of 20 young male Sprague-Dawley rats weighing approximately 150 g. […] Ten rats from each group were autopsied and the organs and some body tissues examined by macroscopic and microscopic techniques.

[8] = physchem; conditions: water
[9] = test system: haemolysis; conditions: cited from earlier work
[10] = water solubility

Compound | reduction in acute oedema formation [1] | AORTIC THROMBI Present in % of rats [4] | AORTIC THROMBI Degree of severity [4] | CORNEAL LESIONS Degree of severity [5] | CORNEAL LESIONS Present in % of rats, day 1 [5] | CORNEAL LESIONS Present in % of rats, day 6 [5] | CORNEAL LESIONS Present in % of rats, day 8 [5] | CORNEAL LESIONS Present in % of rats, day 12 [5] | CORNEAL LESIONS Present in % of rats, day 15 [5] | CORNEAL LESIONS Present in % of rats, day 19 [5] | CORNEAL LESIONS Present in % of rats, day 20 [5] | mortality ([7]; 0,1% in chow) | further results
C[C@@H]1CC[C@@]2(OC1)O[C@H]1C[C@H]3[C@@H]4CC[C@H]5C[C@@H](O[C@@H]6O[C@H](CO)[C@@H](O)[C@H](O)[C@H]6O)CC[C@]5(C)[C@H]4CC[C@]3(C)[C@H]1[C@@H]2C [Tigogenyl Glucoside, tigogenyl β-D-glucoside] | 10-40% |  |  |  |  |  |  |  |  |  |  |  | 
C[C@@H]1CC[C@@]2(OC1)O[C@H]1C[C@H]3[C@@H]4CC=C5C[C@@H](O)CC[C@]5(C)[C@H]4CC[C@]3(C)[C@H]1[C@@H]2C [diosgenin] |  |  |  |  |  |  |  |  |  |  |  |  | toxicity [2]: non-toxic; serum cholesterol levels [3]: lowers the serum cholesterol levels
C[C@@H]1CC[C@@]2(OC1)O[C@H]1C[C@H]3[C@@H]4CC[C@H]5C[C@@H](O[C@@H]6O[C@H](CO)[C@@H](O)[C@H](O)[C@H]6O)CC[C@]5(C)[C@H]4CC(=O)[C@]3(C)[C@H]1[C@@H]2C [Hecogenyl Glucoside, hecogenyl β-D-glucoside] | 10-40% | 50% | 1,38 (± 1,51) | 0,89 | 0% | 87,5% | 100% | 100% | 100% | 20% | 0% | No mortality occurred | tolerability [6]: well tolerated; drug-related pathological changes ([7]; 0,1% in chow, autopsy, macroscopic and microscopic): No drug-related pathological changes were detected in any tissues; solubility [8]: ~5 µg/mL (≈ 8.43 µM); in vitro haemolytic effects [9]: without showing the usual in vitro haemolytic effects
C[C@@H]1CC[C@@]2(OC1)O[C@H]1C[C@H]3[C@@H]4CC=C5C[C@@H](O[C@@H]6O[C@H](CO)[C@@H](O)[C@H](O)[C@H]6O)CC[C@]5(C)[C@H]4CC[C@]3(C)[C@H]1[C@@H]2C [Diosgenyl Glucoside, diosgenyl β-D-glucoside] | 10-40% | 44% | 1,33 (± 1,66) | 1,05 | 0% | 85,7% | 100% | 100% | 50% | 25% | 0% | No mortality occurred | drug-related pathological changes ([7]; rat, in vivo): No drug-related pathological changes were detected in any tissues; in vitro haemolytic effects ([9]; in vitro, reference (6)): without showing the usual in vitro haemolytic effects; solubility ([10]; 25° C.): ~5 µg/mL (≈ 8.67 µM); solubility ([10]; room temperature, colloidal solution): 5 µg/mL (≈ 8.67 µM)
CC[C@H](CC[C@@H](C)[C@H]1CC[C@H]2[C@@H]3CC=C4C[C@@H](O[C@@H]5O[C@H](CO)[C@@H](O)[C@H](O)[C@H]5O)CC[C@]4(C)[C@H]3CC[C@]12C)C(C)C [Sitosteryl-β-D-Glucoside, reference compound] |  | 70% | 2,00 (± 1,63) | 1,20 | 20% | 90% | 100% | 100% | 17% | 25% | 0% |  | 
